Drawing on US12344597B2, “Alkoxy-substituted pyridinyl derivatives as LPA1 receptor antagonists and their use in the treatment of fibrosis” (IDORSIA PHARMACEUTICALS LTD, priority 2018, dated 2025), this text covers IC50 for 29 molecules.

The target of the experiment is human LPA1 receptor (Homo sapiens (Human), UniProt Q92633). In words: Beta-arrestin recruitment assay to determine IC50 values for human LPAR1. The format is cell-based. The settings on record: antagonist mode, Tango EDG2-bla U2OS cells, LPA 18:1 500 nM final. An outline of the steps: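 Antagonist IC50 = concentration giving 50% inhibition of maximal LPA response. Read-out is beta-lactamase reporter activity after arrestin-protease recruitment in U2OS cells bearing LPA1-TEV-Gal4-VP16 construct; cells pre-incubated 20 h, 37 °C, 5% CO2.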
Background: Arrestin recruitment assays detect the binding of arrestin to an activated receptor.

Sequence of human LPA1 receptor (Q92633 whole entry, the tested form may be a part): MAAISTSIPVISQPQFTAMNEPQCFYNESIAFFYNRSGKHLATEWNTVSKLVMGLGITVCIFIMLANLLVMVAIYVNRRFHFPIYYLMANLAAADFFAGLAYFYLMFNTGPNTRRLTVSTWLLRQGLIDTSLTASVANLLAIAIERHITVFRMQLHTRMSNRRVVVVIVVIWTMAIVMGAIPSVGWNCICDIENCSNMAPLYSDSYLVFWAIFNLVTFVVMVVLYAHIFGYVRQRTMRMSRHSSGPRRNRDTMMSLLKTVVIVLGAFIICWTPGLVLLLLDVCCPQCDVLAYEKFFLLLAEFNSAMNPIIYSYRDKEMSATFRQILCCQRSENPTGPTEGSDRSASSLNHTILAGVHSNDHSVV

As to `Cc1ccc(NC(=O)C2(c3c(C)cccc3C(C)C)CN(C(=O)CC(C)(C)C(=O)O)C2)c(OC(F)F)n1` [Ex 39-1, 4-(3-((2-(difluoromethoxy)-6-methylpyridin-3-yl)carbamoyl)-3-(2-isopropyl-6-methylphenyl)azetidin-1-yl)-2,2-dimethyl-4-oxobutanoic acid], the IC50 is 51 nM. As for `Cc1ccc(C(C)C)c(C2(C(=O)Nc3ccc(C)nc3OC(F)F)CN(C(=O)CC(C)(C)C(=O)O)C2)c1` [Ex 39-2, 4-(3-((2-(difluoromethoxy)-6-methylpyridin-3-yl)carbamoyl)-3-(2-isopropyl-5-methylphenyl)azetidin-1-yl)-2,2-dimethyl-4-oxobutanoic acid], the figure is 15 nM. `Cc1ccc(C2(C(=O)Nc3ccc(C)nc3OC(F)F)CN(C(=O)CC(C)(C)C(=O)O)C2)c(C(C)C)c1` [Ex 39-3, 4-(3-((2-(difluoromethoxy)-6-methylpyridin-3-yl)carbamoyl)-3-(2-isopropyl-4-methylphenyl)azetidin-1-yl)-2,2-dimethyl-4-oxobutanoic acid] registered an IC50 of 40 nM.

Regarding `Cc1ccc(NC(=O)C2(c3c(F)cccc3C(C)C)CN(C(=O)CC(C)(C)C(=O)O)C2)c(OC(F)F)n1` [Ex 39-4, 4-(3-((2-(difluoromethoxy)-6-methylpyridin-3-yl)carbamoyl)-3-(2-fluoro-6-isopropylphenyl)azetidin-1-yl)-2,2-dimethyl-4-oxobutanoic acid], the IC50 turned out to be 5 nM. The molecule `Cc1ccc(NC(=O)C2(c3cc(F)ccc3C(C)C)CN(C(=O)CC(C)(C)C(=O)O)C2)c(OC(F)F)n1` [Ex 39-5, 4-(3-((2-(difluoromethoxy)-6-methylpyridin-3-yl)carbamoyl)-3-(5-fluoro-2-isopropylphenyl)azetidin-1-yl)-2,2-dimethyl-4-oxobutanoic acid] displayed a half-maximal inhibitory concentration (IC50) of 10 nM. For the molecule `COc1ccc(C(C)C)c(C2(C(=O)Nc3ccc(C)nc3OC(F)F)CN(C(=O)CC(C)(C)C(=O)O)C2)c1` [Ex 39-6, 4-(3-((2-(difluoromethoxy)-6-methylpyridin-3-yl)carbamoyl)-3-(2-isopropyl-5-methoxyphenyl)azetidin-1-yl)-2,2-dimethyl-4-oxobutanoic acid], the IC50 came out at 56 nM. In turn, `Cc1ccc(NC(=O)C2(c3ccccc3C(C)C)CN(CC3CCC(C(=O)O)CC3)C2)c(OC(F)F)n1` (centres unmarked) [Ex 41, 4-((3-((2-(difluoromethoxy)-6-methylpyridin-3-yl)carbamoyl)-3-(2-isopropylphenyl)azetidin-1-yl)methyl)cyclohexane-1-carboxylic acid] yielded an IC50 of 96 nM. For `CCCN(CC(=O)O)CC(=O)N1CC(C(=O)Nc2ccc(C)nc2OC(F)F)(c2ccccc2C(C)C)C1` [Ex 42, N-(2-(3-((2-(difluoromethoxy)-6-methylpyridin-3-yl)carbamoyl)-3-(2-isopropylphenyl)azetidin-1-yl)-2-oxoethyl)-N-propylglycine], inhibition was half-maximal at 7 nM (IC50). As for `Cc1ccc(NC(=O)C2(c3ccccc3C(C)C)CN(C(=O)CN(CC(=O)O)C3CC3)C2)c(OC(F)F)n1` [Ex 43, N-cyclopropyl-N-(2-(3-((2-(difluoromethoxy)-6-methylpyridin-3-yl)carbamoyl)-3-(2-isopropylphenyl)azetidin-1-yl)-2-oxoethyl)glycine], the figure is 14 nM; as for `Cc1ccc(NC(=O)C2(c3ccccc3C(C)C)CN(C(=O)CNCCC(=O)O)C2)c(OC(F)F)n1` [Ex 44, 3-((2-(3-((2-(difluoromethoxy)-6-methylpyridin-3-yl)carbamoyl)-3-(2-isopropylphenyl)azetidin-1-yl)-2-oxoethyl)amino)propanoic acid], 155 nM; as for `Cc1ccc(NC(=O)C2(c3ccccc3C(C)C)CN(C(=O)CNCC(C)(C)C(=O)O)C2)c(OC(F)F)n1` [Ex 45, 3-((2-(3-((2-(difluoromethoxy)-6-methylpyridin-3-yl)carbamoyl)-3-(2-isopropylphenyl)azetidin-1-yl)-2-oxoethyl)amino)-2,2-dimethylpropanoic acid], 63 nM.

Molecule `Cc1ccc(NC(=O)C2(c3ccccc3C(C)C)CN(C(=O)CNCC3(C(=O)O)CC3)C2)c(OC(F)F)n1` [Ex 46, 1-(((2-(3-((2-(difluoromethoxy)-6-methylpyridin-3-yl)carbamoyl)-3-(2-isopropylphenyl)azetidin-1-yl)-2-oxoethyl)amino)methyl)cyclopropane-1-carboxylic acid] displayed an IC50 of 100 nM.

The molecule `Cc1ccc(NC(=O)C2(c3ccccc3C(C)C)CN(C(=O)CNC(C)(C)CC(=O)O)C2)c(OC(F)F)n1` [Ex 47, 3-((2-(3-((2-(difluoromethoxy)-6-methylpyridin-3-yl)carbamoyl)-3-(2-isopropylphenyl)azetidin-1-yl)-2-oxoethyl)amino)-3-methylbutanoic acid] gave an IC50 of 95 nM. In the case of `Cc1ccc(NC(=O)C2(c3ccccc3C(C)C)CN(C(=O)CN3CCC(C(=O)O)CC3)C2)c(OC(F)F)n1` [Ex 48, 1-(2-(3-((2-(difluoromethoxy)-6-methylpyridin-3-yl)carbamoyl)-3-(2-isopropylphenyl)azetidin-1-yl)-2-oxoethyl)piperidine-4-carboxylic acid] it was 103 nM; in that of `Cc1ccc(NC(=O)C2(c3ccccc3C(C)C)CN(C(=O)[C@H]3CC[C@@H](C(=O)O)CC3)C2)c(OC(F)F)n1` [Ex 50, (1s,4s)-4-(3-((2-(difluoromethoxy)-6-methylpyridin-3-yl)carbamoyl)-3-(2-isopropylphenyl)azetidine-1-carbonyl)cyclohexane-1-carboxylic acid], 68 nM; in that of `Cc1ccc(NC(=O)C2(c3ccccc3C(C)C)CN(C(=O)[C@@H]3CCC[C@H](C(=O)O)C3)C2)c(OC(F)F)n1` [Ex 51, (1S,3R)-3-(3-((2-(difluoromethoxy)-6-methylpyridin-3-yl)carbamoyl)-3-(2-isopropylphenyl)azetidine-1-carbonyl)cyclohexane-1-carboxylic acid], 80 nM.

Molecule `Cc1ccc(NC(=O)C2(c3ccccc3C(C)C)CN(C(=O)CC3CCC(C(=O)O)CC3)C2)c(OC(F)F)n1` (centres unmarked) [Ex 52, 4-(2-(3-((2-(difluoromethoxy)-6-methylpyridin-3-yl)carbamoyl)-3-(2-isopropylphenyl)azetidin-1-yl)-2-oxoethyl)cyclohexane-1-carboxylic acid] registered an IC50 of 51 nM.

On to `Cc1ccc(NC(=O)C2(c3ccccc3C(C)C)CN(CCC(C)(C)C(=O)NS(C)(=O)=O)C2)c(OC(F)F)n1` [Ex 53, N-(2-(difluoromethoxy)-6-methylpyridin-3-yl)-1-(3,3-dimethyl-4-(methylsulfonamido)-4-oxobutyl)-3-(2-isopropylphenyl)azetidine-3-carboxamide], for which half-maximal inhibition (IC50) was put at 17 nM. On to `COCCN(CC(=O)OC)CC(=O)N1CC(C(=O)Nc2ccc(C)nc2OC(F)F)(c2ccccc2C(C)C)C1` [Ex 54, methyl N-(2-(3-((2-(difluoromethoxy)-6-methylpyridin-3-yl)carbamoyl)-3-(2-isopropylphenyl)azetidin-1-yl)-2-oxoethyl)-N-(2-methoxyethyl)glycinate], for which the IC50 came to 69 nM. As for `COCCN(CC(=O)O)CC(=O)N1CC(C(=O)Nc2ccc(C)nc2OC(F)F)(c2ccccc2C(C)C)C1` [Ex 55], the figure is 44 nM; as for `COC(=O)CNCC(=O)N1CC(C(=O)Nc2ccc(C)nc2OC(F)F)(c2ccccc2C(C)C)C1` [Ex 56, methyl (2-(3-((2-(difluoromethoxy)-6-methylpyridin-3-yl)carbamoyl)-3-(2-isopropylphenyl)azetidin-1-yl)-2-oxoethyl)glycinate], 8 nM.

Regarding `CCN(CC(=O)O)CC(=O)N1CC(C(=O)Nc2ccc(C)nc2OC(F)F)(c2ccccc2C(C)C)C1` [Ex 58, N-(2-(3-((2-(difluoromethoxy)-6-methylpyridin-3-yl)carbamoyl)-3-(2-isopropylphenyl)azetidin-1-yl)-2-oxoethyl)-N-ethylglycine], the midpoint of inhibition, the IC50, lay at 48 nM.

`CCCOc1nc(C)ccc1NC(=O)C1(c2ccccc2C(C)C)CN(S(N)(=O)=O)C1` [Ex 59, 3-(2-isopropylphenyl)-N-(6-methyl-2-propoxypyridin-3-yl)-1-sulfamoylazetidine-3-carboxamide] came in with an IC50 of 270 nM.

`Cc1ccc(NC(=O)C2(c3ncccc3C(C)C)CN(C(=O)CCC(=O)O)C2)c(OC(F)F)n1` [Ex 61, 4-(3-((2-(difluoromethoxy)-6-methylpyridin-3-yl)carbamoyl)-3-(3-isopropylpyridin-2-yl)azetidin-1-yl)-4-oxobutanoic acid] displayed an IC50 of 70 nM. As for `Cc1ccc(NC(=O)C2(c3ncccc3C(C)C)CN(C(=O)NC3CC3)C2)c(OC(F)F)n1` [Ex 63, N1-cyclopropyl-N3-(2-(difluoromethoxy)-6-methylpyridin-3-yl)-3-(3-isopropylpyridin-2-yl)azetidine-1,3-dicarboxamide], the figure is 8 nM.

As for `Cc1ccc(NC(=O)C2(c3ncccc3C(C)C)CN(c3nc(C)ncc3F)C2)c(OC(F)F)n1` [Ex 64, N-(2-(difluoromethoxy)-6-methylpyridin-3-yl)-1-(5-fluoro-2-methylpyrimidin-4-yl)-3-(3-isopropylpyridin-2-yl)azetidine-3-carboxamide], the IC50 was determined as 15 nM. The molecule `Cc1ccc(NC(=O)C2(c3ncccc3C(C)C)CN(c3nc(C)ccc3F)C2)c(OC(F)F)n1` [Ex 65, N-(2-(difluoromethoxy)-6-methylpyridin-3-yl)-1-(3-fluoro-6-methylpyridin-2-yl)-3-(3-isopropylpyridin-2-yl)azetidine-3-carboxamide] came in with an IC50 of 37 nM.

For `Cc1ccc(NC(=O)C2(c3nccnc3C(C)C)CNC2)c(OC(F)F)n1` [Ex 68, N-(2-(difluoromethoxy)-6-methylpyridin-3-yl)-3-(3-isopropylpyrazin-2-yl)azetidine-3-carboxamide], 7620 nM corresponded to half-maximal inhibition (IC50). As for `Cc1ccc(NC(=O)C2(c3nccnc3C(C)C)CN(S(N)(=O)=O)C2)c(OC(F)F)n1` [Ex 69, N-(2-(difluoromethoxy)-6-methylpyridin-3-yl)-3-(3-isopropylpyrazin-2-yl)-1-sulfamoylazetidine-3-carboxamide], the figure is 27 nM.

By IC50 is commonly meant the midpoint of a concentration-inhibition curve. Read a high IC50 as lower potency.
